Consider one compound from BindingDB's records for doi:10.1021/jm0504499 (Universit&#224, 2005).

Experiment [1] has as its target Metabotropic glutamate receptor 2 (Rattus norvegicus) (UniProt P31421). As to the kind of experiment: Binding affinity for mGluR2 receptor expressed in CHO cells.
For experiment [2] the target is unchanged. The experiment in a line: Effective concentration against mGluR2 receptor expressed in CHO cells.

Chain of Metabotropic glutamate receptor 2 (Rattus norvegicus) (P31421 whole entry, looked up): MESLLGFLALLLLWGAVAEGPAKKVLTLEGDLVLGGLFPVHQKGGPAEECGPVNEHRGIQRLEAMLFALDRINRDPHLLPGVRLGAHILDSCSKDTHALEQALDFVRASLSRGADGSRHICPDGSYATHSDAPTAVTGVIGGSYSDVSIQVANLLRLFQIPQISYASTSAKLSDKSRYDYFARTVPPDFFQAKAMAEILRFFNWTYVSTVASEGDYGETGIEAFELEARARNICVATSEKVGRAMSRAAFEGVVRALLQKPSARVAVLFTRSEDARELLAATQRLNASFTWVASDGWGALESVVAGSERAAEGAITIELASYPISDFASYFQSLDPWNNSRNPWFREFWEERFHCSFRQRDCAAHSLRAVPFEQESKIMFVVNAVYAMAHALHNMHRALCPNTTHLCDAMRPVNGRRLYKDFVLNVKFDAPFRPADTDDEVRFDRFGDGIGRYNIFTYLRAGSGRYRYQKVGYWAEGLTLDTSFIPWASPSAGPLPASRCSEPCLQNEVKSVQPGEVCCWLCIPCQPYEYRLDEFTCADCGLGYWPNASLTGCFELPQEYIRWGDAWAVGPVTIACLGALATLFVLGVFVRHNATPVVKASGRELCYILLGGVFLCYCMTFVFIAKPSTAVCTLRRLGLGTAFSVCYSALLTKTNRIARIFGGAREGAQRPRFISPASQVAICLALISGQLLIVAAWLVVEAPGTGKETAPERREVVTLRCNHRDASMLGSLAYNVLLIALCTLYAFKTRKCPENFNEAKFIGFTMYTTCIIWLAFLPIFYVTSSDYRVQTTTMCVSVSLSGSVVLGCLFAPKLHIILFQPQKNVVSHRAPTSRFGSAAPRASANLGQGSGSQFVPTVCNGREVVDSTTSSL

Take `N[C@@H](C[C@H]1CC(C(=O)O)=NO1)C(=O)O` [5-(2-Amino-2-carboxy-ethyl)-4,5-dihydro-isoxazole-3-carboxylic acid]: the Ki in experiment [1] was over 1000 µM. Also, the EC50 in experiment [2] was over 1000 µM.
